Results: patent US20100173990A1, “Transglutaminase Inhibitor Comprising Chlorogenic Acid And A Method For Producing Thereof” (priority 2007, published 2010)

Target: T1, Transglutaminase 2 (Cavia cutleri, UniProt P08587)
T1 construct: purchased Sigma-Aldrich T5398
T1 sequence (P08587 1-690): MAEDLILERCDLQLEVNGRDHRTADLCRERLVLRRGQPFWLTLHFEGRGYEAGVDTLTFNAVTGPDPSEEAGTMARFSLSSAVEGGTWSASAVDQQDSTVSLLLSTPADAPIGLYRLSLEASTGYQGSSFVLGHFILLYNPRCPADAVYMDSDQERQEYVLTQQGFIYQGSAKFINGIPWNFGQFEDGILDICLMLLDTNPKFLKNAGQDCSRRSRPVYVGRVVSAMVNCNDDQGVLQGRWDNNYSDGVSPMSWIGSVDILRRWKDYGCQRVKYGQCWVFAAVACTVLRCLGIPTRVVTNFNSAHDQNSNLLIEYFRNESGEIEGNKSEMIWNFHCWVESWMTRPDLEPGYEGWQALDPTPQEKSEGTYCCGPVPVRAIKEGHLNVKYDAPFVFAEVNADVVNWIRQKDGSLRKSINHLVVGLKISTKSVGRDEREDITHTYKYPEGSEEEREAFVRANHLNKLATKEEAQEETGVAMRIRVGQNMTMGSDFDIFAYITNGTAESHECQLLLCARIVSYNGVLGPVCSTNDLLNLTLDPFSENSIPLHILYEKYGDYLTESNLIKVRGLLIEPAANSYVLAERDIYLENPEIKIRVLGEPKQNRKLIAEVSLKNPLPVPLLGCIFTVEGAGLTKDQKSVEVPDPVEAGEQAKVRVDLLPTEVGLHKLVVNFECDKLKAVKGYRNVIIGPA
Test: In vitro assay for inhibition of transglutaminase activity ([1,4-14C] putrescine incorporation into succinylated casein)
Type: biochemical
Conditions: for activity of transglutaminase relative to DMSO-control, Assay 1 / activity of transglutaminase relative to DMSO-control, Assay 2 / activity of transglutaminase relative to DMSO-control, Assay 3 / activity of transglutaminase relative to DMSO-control, Mean: control = 1.0000; for activity of transglutaminase relative to DMSO-control, Mean: mean of three assays
Experimental: To measure the inhibitory activity of chlorogenic acid which competes with putrescine, the transglutaminase-catalyzed reaction between [1,4,-^14C] putrescine and succinylated casein were observed.
Succinylated casein was purchased from Calbiochem (Cat. No. 573464), and 1 g of the powder was dissolved in 50 ml of a reaction buffer solution containing 5 mM DTT (0.1 M Tris-acetate (pH 8.0), 10 mM CaCl, 0.15 M NaCl, 1.0 mM EDTA). This solution was stored in a deep freezer for further use. [1,4-^14C] Putrescine dihydrochloride was purchased from GE Healthcare (Cat. No. CFA301), and the stock solution was diluted with distilled water to yield a radiological dose of 5 μCi/ml. Transglutaminase 2 was purchased from Sigma-Aldrich (Cat. No. T5398), and diluted with distilled water to yield a final concentration of 1 unit/ml. Chlorogenic acid (Sigma-Aldrich, Cat No. C3878) was dissolved in DMSO at a concentration of 10 mM to prepare its stock solution, and the stock solution was diluted with DMSO to prepare solutions having various concentrations.
450 μl of succinylated casein solution and 50 μl of [1,4-^14C] putrescine dihydrochloride solution were mixed together to prepare a substrate solution. 96 μl of the reaction buffer, 3 μl of the stock solution of chlorogenic acid, and 1 μl of the stock solution of transglutaminase were mixed together to prepare each sample, followed by incubation at 37° C. for 10 min. 500 μl of the substrate solution and 100 μl of sample solution were mixed well, and the mixture was incubated at 37° C. for 2 hrs, before termination with 4.5 ml of cold (4° C.) 7.5% TCA. The final solution was stored at 4° C. for 1 hr. The TCA-precipitates were filtered through a GF/glass fiber filter, washed with 25 ml of cold 5% TCA, and dried. Radioactivity of crosslinked protein was measured using a β-counter (Beckman Coulter), and compensated by the activity of DMSO-control group as a standard. The activity of transglutaminase was represented by the measured values.

O=C(/C=C/c1ccc(O)c(O)c1)O[C@@H]1C[C@](O)(C(=O)O)C[C@@H](O)[C@H]1O [chlorogenic acid, 3-[[3-(3,4-dihydroxyphenyl)-1-oxo-2-propenyl]oxy]-1,4,5-trihydroxycyclohexanecarboxylic acid]
activity of transglutaminase relative to DMSO-control, Assay 1 (0.5 μM chlorogenic acid): 0.9450 | activity of transglutaminase relative to DMSO-control, Assay 2 (0.5 μM chlorogenic acid): 0.8658 | activity of transglutaminase relative to DMSO-control, Assay 3 (0.5 μM chlorogenic acid): 0.9028 | activity of transglutaminase relative to DMSO-control, Mean (0.5 μM chlorogenic acid): 0.9045 | activity of transglutaminase relative to DMSO-control, Assay 1 (1.0 μM chlorogenic acid): 0.8294 | activity of transglutaminase relative to DMSO-control, Assay 2 (1.0 μM chlorogenic acid): 0.7454 | activity of transglutaminase relative to DMSO-control, Assay 3 (1.0 μM chlorogenic acid): 0.5411 | activity of transglutaminase relative to DMSO-control, Mean (1.0 μM chlorogenic acid): 0.7053 | activity of transglutaminase relative to DMSO-control, Assay 1 (2.0 μM chlorogenic acid): 0.4526 | activity of transglutaminase relative to DMSO-control, Assay 2 (2.0 μM chlorogenic acid): 0.5111 | activity of transglutaminase relative to DMSO-control, Assay 3 (2.0 μM chlorogenic acid): 0.3081 | activity of transglutaminase relative to DMSO-control, Mean (2.0 μM chlorogenic acid): 0.4240 | activity of transglutaminase relative to DMSO-control, Assay 1 (3.0 μM chlorogenic acid): 0.2041 | activity of transglutaminase relative to DMSO-control, Assay 2 (3.0 μM chlorogenic acid): 0.1523 | activity of transglutaminase relative to DMSO-control, Assay 3 (3.0 μM chlorogenic acid): 0.1209 | activity of transglutaminase relative to DMSO-control, Mean (3.0 μM chlorogenic acid): 0.1591 | activity of transglutaminase relative to DMSO-control, Assay 1 (5.0 μM chlorogenic acid): 0.1094 | activity of transglutaminase relative to DMSO-control, Assay 2 (5.0 μM chlorogenic acid): 0.1009 | activity of transglutaminase relative to DMSO-control, Assay 3 (5.0 μM chlorogenic acid): 0.0797 | activity of transglutaminase relative to DMSO-control, Mean (5.0 μM chlorogenic acid): 0.0966 | activity of transglutaminase relative to DMSO-control, Assay 1 (10.0 μM chlorogenic acid): 0.0713 | activity of transglutaminase relative to DMSO-control, Assay 2 (10.0 μM chlorogenic acid): 0.0876 | activity of transglutaminase relative to DMSO-control, Assay 3 (10.0 μM chlorogenic acid): 0.0754 | activity of transglutaminase relative to DMSO-control, Mean (10.0 μM chlorogenic acid): 0.0781 | activity of transglutaminase relative to DMSO-control, Assay 1 (50.0 μM chlorogenic acid): 0.0711 | activity of transglutaminase relative to DMSO-control, Assay 2 (50.0 μM chlorogenic acid): 0.0808 | activity of transglutaminase relative to DMSO-control, Assay 3 (50.0 μM chlorogenic acid): 0.0703 | activity of transglutaminase relative to DMSO-control, Mean (50.0 μM chlorogenic acid): 0.0741 | IC50 (calculated by nonlinear regression from mean values): 1490 nM | inhibition of the activity of transglutaminase (FIG. 1) (relative inhibition activities versus concentration): inhibited in a chlorogenic acid concentration-dependent manner
